Measurements published in PubChem BioAssay (NCI).
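Where inhibition never reached the appropriate level, the endpoint shown equals the highest concentration tested. Otherwise, values were interpolated linearly from a five-concentration, 48-hour dose response in 96-well plates. Abbreviation: GI50, concentration required for 50% inhibition of growth. Definition used: TGI = concentration required for complete inhibition of growth.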

Columns and labels:
Assay in all cases: DTP human tumour cell line panel, 48 h
HCC-2998 colon = system: HCC-2998 colon
HOP-62 NSCLC = system: HOP-62 NSCLC
LOX IMVI melanoma = system: LOX IMVI melanoma
MDA-MB-231 breast = system: MDA-MB-231 breast
MOLT-4 leukemia = system: MOLT-4 leukemia
SK-OV-3 ovarian = system: SK-OV-3 ovarian
SR leukemia = system: SR leukemia
U251 CNS = system: U251 CNS
UACC-62 melanoma = system: UACC-62 melanoma
UO-31 renal = system: UO-31 renal

SMILES	GI50 (HCC-2998 colon) [µM]	TGI (HCC-2998 colon) [µM]	GI50 (HOP-62 NSCLC) [µM]	TGI (HOP-62 NSCLC) [µM]	GI50 (LOX IMVI melanoma) [µM]	TGI (LOX IMVI melanoma) [µM]	GI50 (MDA-MB-231 breast) [µM]	TGI (MDA-MB-231 breast) [µM]	GI50 (MOLT-4 leukemia) [µM]	TGI (MOLT-4 leukemia) [µM]	GI50 (SK-OV-3 ovarian) [µM]	TGI (SK-OV-3 ovarian) [µM]	GI50 (SR leukemia) [µM]	TGI (SR leukemia) [µM]	GI50 (U251 CNS) [µM]	TGI (U251 CNS) [µM]	GI50 (UACC-62 melanoma) [µM]	TGI (UACC-62 melanoma) [µM]	GI50 (UO-31 renal) [µM]	TGI (UO-31 renal) [µM]
O=C(N/N=C/c1ccc(O)cc1O)c1cccnc1	4.72	> 100	13.4	> 100	1.84	> 100	3.68	> 100	3.1	> 100	11.4	> 100	3.21	> 100	2.42	41.5	2.38	17.5	1.46	> 100
C[Si](C)(C)CN1C(=O)c2ccccc2C1(O)c1ccccc1 (centres undefined)	–	> 100	–	> 100	–	> 100	–	–	–	> 100	–	–	–	> 100	–	> 100	–	> 100	–	> 100
Cn1cc(-c2csc(-c3cn(C)c4ccc(F)cc34)n2)c2cnccc21	1.86	3.55	1.92	3.49	–	–	1.75	3.26	–	–	2.03	3.75	–	–	1.8	3.23	1.74	3.2	1.64	3.09
CC1COS(=O)O1 (centres undefined)	–	> 100	–	> 100	–	> 100	–	–	–	> 100	–	> 100	–	> 100	–	–	–	> 100	–	> 100
c1ccc(NCCSc2nc3ccccc3s2)cc1	–	–	–	> 100	–	> 100	–	> 100	–	82.4	–	> 100	–	> 100	–	> 100	–	> 100	–	> 100
c1ccc2c(c1)c1ccccc1c1ccccc21	> 100	> 100	> 100	> 100	> 100	> 100	87.2	> 100	77.3	> 100	> 100	> 100	–	–	> 100	> 100	> 100	> 100	> 100	> 100
O=C1c2ccc3c4ccccc4n(-c4ccccc4)c3c2C(=O)N1c1ccc(Cl)cc1	–	> 100	–	> 100	–	> 100	–	–	–	> 100	–	> 100	–	> 100	–	> 100	–	> 100	–	> 100
O=C1C2[C@@H](C(=O)N1c1ccc(Br)cc1)C13C(=CC2([N+](=O)[O-])[C@@H]2C(=O)N(c4ccc(Br)cc4)C(=O)[C@@H]21)c1ccccc1N3c1ccccc1 (some centres undefined)	–	> 100	–	–	–	> 100	–	–	–	> 100	–	–	–	> 100	–	> 100	–	–	–	38.7
Cc1ccc2[c](c1)[Sn]([c]1ccccc1)([c]1ccccc1)[c]1cc(C)ccc1N2C	26.4	> 100	> 100	> 100	13.2	29.6	–	–	–	–	> 100	> 100	0.116	–	87.5	> 100	20.9	> 100	> 100	> 100
CN(C)CCNc1nc2ccccc2c2c(=O)c3cc(F)ccc3sc12	1.68	3.23	1.89	3.93	1.63	3.03	1.47	2.88	–	–	–	–	3.27	> 100	–	–	1.73	3.18	1.4	2.73
Cc1c2c(C(N)=O)nccc2c(C)c2c1c1ccccc1n2Cc1ccccc1	–	73.1	–	19.3	–	19.7	–	28	–	62.9	–	47.6	–	–	–	24.9	–	> 100	–	37.6
COc1cc(/C=C/C(=O)C(C(=O)/C=C/c2ccc(OC(=O)CCNC34CC5CC(CC(C5)C3)C4)c(OC)c2)C(=O)CCNC23CC4CC(CC(C4)C2)C3)ccc1OC(=O)CCNC12CC3CC(CC(C3)C1)C2 (centres undefined)	1.93	3.84	9.12	> 100	1.98	3.94	3.99	26.5	–	–	5.44	36.3	–	–	3.25	11.3	3.37	13.3	2.71	18.7
Cn1cc(S(=O)(=O)N2CCC3=Cc4c(cnn4-c4ccc(F)cc4)C[C@]3(C(=O)c3cc(C(F)(F)F)ccn3)C2)cn1	> 100	> 100	43	> 100	> 100	> 100	> 100	> 100	> 100	> 100	–	–	–	–	> 100	> 100	29.1	> 100	9.52	> 100
COC(=O)c1c[nH]cc1CCCCc1c[nH]cc1C(=O)OC	–	> 100	–	> 100	–	> 100	–	–	–	> 100	–	> 100	–	> 100	–	> 100	–	–	–	–
Cn1c(=S)c2[nH]c(SCCCc3ccccc3)nc2n(C)c1=O	–	–	–	> 100	–	> 100	–	> 100	–	> 100	–	> 100	–	27.4	–	> 100	–	> 100	–	64.4
Cc1sc2c(c1C)C(c1ccc(Cl)cc1)=N[C@@H](CC(=O)Nc1ccc(OCCOCCOCCOCCNc3cccc4c3C(=O)N(C3CCC(=O)NC3=O)C4=O)cc1)c1nnc(C)n1-2 (some centres undefined)	0.0796	> 100	< 0.01	> 100	0.234	19.1	< 0.0175	> 83.8	–	–	0.306	> 31.6	< 0.0219	> 100	0.476	> 100	< 0.0462	> 100	0.28	> 100
COC(=O)C(=O)CC(=O)c1cccc(OC)c1	–	> 100	–	> 100	–	> 100	–	> 100	–	> 100	–	> 100	–	–	–	> 100	–	> 100	–	> 100
Cc1ccc(C)c(N2C(=O)C(=O)C(c3nc4ccccc4o3)/C(=N\NC(=O)c3ccccc3O)C2=O)c1 (centres undefined)	–	> 100	–	> 100	–	> 100	–	–	–	52.6	–	> 100	–	76.2	–	> 100	–	84.4	–	87.6
